Results published in patent US20160362408A1 (Bayer Pharma Aktiengesellschaft, priority 2013, published 2016).

What follows are compounds tested against T1, recombinant guanylate cyclase reporter cell line (Rattus norvegicus, UniProt P19686+P20595) (assay: Effect on a recombinant guanylate cyclase reporter cell line). Settings: MEC = minimum effective concentration; in some cases mean values for individual determinations.
T1 construct: expressed in transfected cells
T1 sequence (P19686 1-690): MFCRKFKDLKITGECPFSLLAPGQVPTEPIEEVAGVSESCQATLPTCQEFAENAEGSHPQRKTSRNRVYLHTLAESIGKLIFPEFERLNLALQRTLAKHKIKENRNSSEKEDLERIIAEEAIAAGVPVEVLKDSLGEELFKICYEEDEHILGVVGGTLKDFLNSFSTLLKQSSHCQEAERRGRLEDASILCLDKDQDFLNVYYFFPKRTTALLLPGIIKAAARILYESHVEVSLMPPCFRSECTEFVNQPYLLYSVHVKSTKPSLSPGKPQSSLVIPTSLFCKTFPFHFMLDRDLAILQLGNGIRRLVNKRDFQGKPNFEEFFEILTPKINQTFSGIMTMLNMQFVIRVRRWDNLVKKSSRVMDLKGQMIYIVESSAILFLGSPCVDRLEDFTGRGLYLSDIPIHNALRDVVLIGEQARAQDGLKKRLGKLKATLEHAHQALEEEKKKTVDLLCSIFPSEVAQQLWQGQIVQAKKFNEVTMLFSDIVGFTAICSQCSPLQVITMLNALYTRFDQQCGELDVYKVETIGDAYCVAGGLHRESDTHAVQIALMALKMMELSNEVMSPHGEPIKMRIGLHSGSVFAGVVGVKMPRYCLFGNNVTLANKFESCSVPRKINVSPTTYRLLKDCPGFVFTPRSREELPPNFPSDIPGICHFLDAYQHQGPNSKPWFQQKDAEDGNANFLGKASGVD
T1 sequence (P20595 1-619): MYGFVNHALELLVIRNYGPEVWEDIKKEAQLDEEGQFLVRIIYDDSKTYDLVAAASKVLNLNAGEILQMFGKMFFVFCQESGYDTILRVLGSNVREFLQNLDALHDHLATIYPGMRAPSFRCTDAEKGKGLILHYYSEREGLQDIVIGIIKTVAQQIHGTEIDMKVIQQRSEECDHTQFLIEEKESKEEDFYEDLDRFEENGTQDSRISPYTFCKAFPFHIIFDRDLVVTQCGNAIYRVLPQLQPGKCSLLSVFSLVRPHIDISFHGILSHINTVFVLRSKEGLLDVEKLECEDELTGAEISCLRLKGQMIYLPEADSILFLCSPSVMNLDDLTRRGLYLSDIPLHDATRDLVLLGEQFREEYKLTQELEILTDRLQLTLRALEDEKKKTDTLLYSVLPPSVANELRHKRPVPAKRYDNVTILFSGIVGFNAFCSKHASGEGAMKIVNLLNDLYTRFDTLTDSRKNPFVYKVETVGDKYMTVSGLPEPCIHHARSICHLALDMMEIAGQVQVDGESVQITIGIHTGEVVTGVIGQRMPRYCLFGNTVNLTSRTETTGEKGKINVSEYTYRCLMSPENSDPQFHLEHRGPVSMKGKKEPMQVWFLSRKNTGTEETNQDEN
Type: cell-based
Procedure: B-2. Effect on a Recombinant Guanylate Cyclase Reporter Cell Line
The cellular action of the compounds of the invention is determined using a recombinant guanylate cyclase reporter cell line, as described in F. Wunder et al., Anal. Biochem. 339, 104-112 (2005).
Representative MEC values (MEC=minimum effective concentration) for the compounds of the invention are shown in the table below (in some cases as mean values for individual determinations): […]

Compound	MEC
Cc1ccc2cccnc2c1NC(=O)c1c(C)nc2c(OCc3c(F)cccc3F)cccn12 [Example 65]	1.0 µM
Cc1ccc2ccccc2c1NC(=O)c1c(C)nc2c(OCc3c(F)cccc3F)cccn12 [Example 66]	0.1 µM
Cc1nc2c(OCc3c(F)cccc3F)cccn2c1C(=O)Nc1cccc2cnccc12 [Example 67]	0.3 µM
Cc1nc2c(OCc3c(F)cccc3F)cccn2c1C(=O)Nc1cccc2ncccc12 [Example 68]	0.3 µM
Cc1cc(NC(=O)c2c(C)nc3c(OCc4c(F)cccc4F)cccn23)c2ccccc2n1 [Example 69]	0.55 µM
Cc1cc2c(NC(=O)c3c(C)nc4c(OCc5c(F)cccc5F)cccn34)cccc2nn1 [Example 70]	0.3 µM
Cc1nc2c(OCc3c(F)cccc3F)cccn2c1C(=O)Nc1ccnc2ccc(Cl)cc12 [Example 71]	0.1 µM
Cc1nc2c(OCc3c(F)cccc3F)cccn2c1C(=O)Nc1ccc(C)c2ncccc12 [Example 72]	0.3 µM
Cc1nc2c(OCc3c(F)cccc3F)cccn2c1C(=O)Nc1cccc2ccc(O)cc12 [Example 74]	1.0 µM
Cc1nc2c(OCc3c(F)cccc3F)cccn2c1C(=O)Nc1c(C(F)(F)F)n[nH]c1C [Example 76, 8-[(2,6-Difluorobenzyl)oxy]-2-methyl-N-[5-methyl-3-(trifluoromethyl)-1H-pyrazol-4-yl]imidazo[1,2-a]pyridine-3-carboxamide]	0.1 µM
Cc1nc2c(OCc3c(F)cccc3F)cccn2c1C(=O)Nc1ccnc2cc(Cl)ccc12 [Example 77, N-(7-Chloroquinolin-4-yl)-8-[(2,6-difluorobenzyl)oxy]-2-methylimidazo[1,2-a]pyridine-3-carboxamide]	0.1 µM
Cc1nc2c(OCc3c(F)cccc3F)cccn2c1C(=O)Nc1ccnc2c(F)cccc12 [Example 78]	1.0 µM
Cc1nc2c(OCc3c(F)cccc3F)cccn2c1C(=O)Nc1ccnc2ccc(C(F)(F)F)cc12 [Example 79]	0.1 µM
Cc1nc2c(OCc3c(F)cccc3F)cccn2c1C(=O)Nc1n[nH]c2ccccc12 [Example 80, 8-[(2,6-Difluorobenzyl)oxy]-N-(1H-indazol-3-yl)-2-methylimidazo[1,2-a]pyridine-3-carboxamide]	0.3 µM
Cc1nc2c(OCc3c(F)cccc3F)cccn2c1C(=O)Nc1cn(C)nc1CO [Example 81]	1.0 µM
Cc1nc2c(OCc3c(F)cccc3F)cc(Cl)cn2c1C(=O)Nc1cnn2ccccc12 [Example 82]	0.3 µM
Cc1nc2c(OCc3c(F)cccc3F)cccn2c1C(=O)Nc1nnc(CCOC(C)C)s1 [Example 83]	3.0 µM
Cc1nc2c(OCc3c(F)cccc3F)cccn2c1C(=O)Nc1nnc(C2CC2)s1 [Example 84]	3.0 µM
Cc1cc(OCc2c(F)cccc2F)c2nc(C)c(C(=O)Nc3cnn(CC(F)(F)F)c3)n2c1 [Example 85]	0.1 µM
Cc1cc(OCc2c(F)cccc2F)c2nc(C)c(C(=O)Nc3cnn(CCO)c3)n2c1 [Example 86]	0.3 µM
Cc1cc(OCc2c(F)cccc2F)c2nc(C)c(C(=O)Nc3c(C)nn(CCO)c3C)n2c1 [Example 87]	0.3 µM
Cc1nc2c(OCc3c(F)cccc3F)cccn2c1C(=O)Nc1c(C(C)(C)O)n[nH]c1C [Example 88]	0.65 µM

Compound	MEC
Cc1cc(OCc2c(F)cccc2F)c2nc(C)c(C(=O)Nc3cnn(COCC(F)(F)F)c3)n2c1 [Example 89]	0.1 µM
Cc1nc2c(OCc3c(F)cccc3F)cccn2c1C(=O)Nc1cnn(COCC(F)(F)F)c1 [Example 90]	0.3 µM
Cc1cc(OCc2c(F)cccc2F)c2nc(C)c(C(=O)Nc3ccnc4ccc(F)cc34)n2c1 [Example 91, 8-[(2,6-Difluorobenzyl)oxy]-N-(6-fluoroquinolin-4-yl)-2,6-dimethylimidazo[1,2-a]pyridine-3-carboxamide]	0.01 µM
Cc1nc2c(OCc3c(F)cccc3F)cc(Cl)cn2c1C(=O)Nc1ccnc2ccc(F)cc12 [Example 92]	0.1 µM
Cc1ccncc1NC(=O)c1c(C)nc2c(OCc3c(F)cccc3F)cccn12 [Example 93]	1.0 µM
Cc1cc(OCc2c(F)cccc2F)c2nc(C)c(C(=O)Nc3c(C(F)(F)F)n[nH]c3C)n2c1 [Example 94]	0.1 µM
Cc1nc2c(OCc3c(F)cccc3F)cccn2c1C(=O)Nc1cccnc1 [Example 95]	0.3 µM
Cc1nc2c(OCc3c(F)cccc3F)cccn2c1C(=O)Nc1ccc(N2CCN(C)CC2)cc1 [Example 96]	3.0 µM
Cc1nc2c(OCc3c(F)cccc3F)cccn2c1C(=O)Nc1ccc(N2CCN(C)CC2)c(C(F)(F)F)c1 [Example 97]	1.0 µM
Cc1nc2c(OCc3c(F)cccc3F)cccn2c1C(=O)Nc1ccc(NCCO)cc1 [Example 98]	1.0 µM
Cc1nc2c(OCc3c(F)cccc3F)cccn2c1C(=O)Nc1cccc(N2CCN(C)CC2)c1 [Example 99]	3.0 µM
Cc1nc2c(OCc3c(F)cccc3F)cccn2c1C(=O)Nc1ccnc2cc(C(F)(F)F)ccc12 [Example 100]	1.65 µM
Cc1cc(NC(=O)c2c(C)nc3c(OCc4c(F)cccc4F)cccn23)cc(C)n1 [Example 101]	1.0 µM
CCOc1cc(NC(=O)c2c(C)nc3c(OCc4c(F)cccc4F)cccn23)cc(C)n1 [Example 102]	0.3 µM
Cc1nc2c(OCc3c(F)cccc3F)cccn2c1C(=O)Nc1nn(C)c2ccc(C(F)(F)F)cc12 [Example 103, 8-[(2,6-Difluorobenzyl)oxy]-2-methyl-N-[1-methyl-5-(trifluoromethyl)-1H-indazol-3-yl]imidazo[1,2-a]pyridine-3-carboxamide]	1.0 µM
Cc1nc2c(OCc3c(F)cccc3F)cc(Cl)cn2c1C(=O)Nc1ccccc1CN [Example 104, N-[2-(Aminomethyl)phenyl]-6-chloro-8-[(2,6-difluorobenzyl)oxy]-2-methylimidazo[1,2-a]pyridine-3-carboxamide]	3.0 µM
Cc1nc2c(OCc3c(F)cccc3F)cccn2c1C(=O)Nc1ccc(N2CCNCC2)c(F)c1 [Example 106, 8-[(2,6-difluorobenzyl)oxy]-N-[3-fluoro-4-(piperazin-1-yl)phenyl]-2-methylimidazo[1,2-a]pyridine-3-carboxamide]	1.0 µM
Cc1nc2c(OCc3c(F)cccc3F)cccn2c1C(=O)Nc1ccc(N2CCNCC2)c(C(F)(F)F)c1 [Example 107, 8-[(2,6-difluorobenzyl)oxy]-2-methyl-N-[4-(piperazin-1-yl)-3-(trifluoromethyl)phenyl]imidazo[1,2-a]pyridine-3-carboxamide]	1.0 µM
Cc1cc(N2CCNCC2)ccc1NC(=O)c1c(C)nc2c(OCc3c(F)cccc3F)cc(Cl)cn12 [Example 108, 6-chloro-8-[(2,6-difluorobenzyl)oxy]-2-methyl-N-[2-methyl-4-(piperazin-1-yl)phenyl]imidazo[1,2-a]pyridine-3-carboxamide]	1.0 µM
Cc1nc2c(OCc3c(F)cccc3F)cc(Cl)cn2c1C(=O)Nc1ccc(N2CCNCC2)c(F)c1 [Example 109, 6-chloro-8-[(2,6-difluorobenzyl)oxy]-N-[3-fluoro-4-(piperazin-1-yl)phenyl]-2-methylimidazo[1,2-a]pyridine-3-carboxamide]	3.0 µM
Cc1nc2c(OCc3c(F)cccc3F)cccn2c1C(=O)Nc1ccccc1CN [Example 111, N-[2-(Aminomethyl)phenyl]-8-[(2,6-difluorobenzyl)oxy]-2-methylimidazo[1,2-a]pyridine-3-carboxamide]	1.0 µM
Cc1cc(OCc2c(F)cccc2F)c2nc(C)c(C(=O)Nc3ccccc3CN)n2c1 [Example 112, N-[2-(Aminomethyl)phenyl]-8-[(2,6-difluorobenzyl)oxy]-2,6-dimethylimidazo[1,2-a]pyridine-3-carboxamide]	0.3 µM
